Laboratory results published in patent publication US11066369B2, “N-(pyridin-2-yl)pyridine-sulfonamide derivatives and their use in the treatment of disease” (Novartis AG, priority 2016, dated 2021).
Where a name gives a salt, the structure may show the parent alone. Read-outs that look alike come from different tables or passages of the source.

Biological target: T1, horseradish peroxidase (HRP) tagged delF508-CFTR (Homo sapiens, UniProt P13569, DEL508-508)
T1 construct: expressed in transfected cells
Assay: Measurement of delF508-CFTR-HRP surface expression in CFBE41o- cells;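 for DelF508-CFTR-HRP Amax %: percent efficacy relative to reference corrector lumacaftor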
Format: cell-based
Conditions: for Emax: read-out: DelF508-CFTR-HRP Amax %
Outline: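 CFBE41o- bronchial epithelial cells stably expressing delF508-CFTR with HRP in the fourth extracellular loop; expression induced 48h with 500 ng/mL doxycycline, then compounds added (top 10 μM, 10-point 3-fold series, ≤0.5% DMSO) for 24h at 37° C. Surface HRP measured by luminescence with cell-impermeant substrate; EC50 from logistic fit of triplicates, plate-normalized to lowest concentration; efficacy also relative to a reference corrector.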

[1] = delF508-CFTR-HRP surface expression, CFBE41o- cells
[2] = delF508-CFTR-HRP surface expression, CFBE41o- cells, read-out: DelF508-CFTR-HRP EC50
[3] = CFBE41o- cells, mean of at least two replicates, read-out: DelF508-CFTR-HRP EC50
[4] = CFBE41o- cells, surface expression Amax

T1 sequence (P13569 with tags, fused parts or gaps DEL508-508): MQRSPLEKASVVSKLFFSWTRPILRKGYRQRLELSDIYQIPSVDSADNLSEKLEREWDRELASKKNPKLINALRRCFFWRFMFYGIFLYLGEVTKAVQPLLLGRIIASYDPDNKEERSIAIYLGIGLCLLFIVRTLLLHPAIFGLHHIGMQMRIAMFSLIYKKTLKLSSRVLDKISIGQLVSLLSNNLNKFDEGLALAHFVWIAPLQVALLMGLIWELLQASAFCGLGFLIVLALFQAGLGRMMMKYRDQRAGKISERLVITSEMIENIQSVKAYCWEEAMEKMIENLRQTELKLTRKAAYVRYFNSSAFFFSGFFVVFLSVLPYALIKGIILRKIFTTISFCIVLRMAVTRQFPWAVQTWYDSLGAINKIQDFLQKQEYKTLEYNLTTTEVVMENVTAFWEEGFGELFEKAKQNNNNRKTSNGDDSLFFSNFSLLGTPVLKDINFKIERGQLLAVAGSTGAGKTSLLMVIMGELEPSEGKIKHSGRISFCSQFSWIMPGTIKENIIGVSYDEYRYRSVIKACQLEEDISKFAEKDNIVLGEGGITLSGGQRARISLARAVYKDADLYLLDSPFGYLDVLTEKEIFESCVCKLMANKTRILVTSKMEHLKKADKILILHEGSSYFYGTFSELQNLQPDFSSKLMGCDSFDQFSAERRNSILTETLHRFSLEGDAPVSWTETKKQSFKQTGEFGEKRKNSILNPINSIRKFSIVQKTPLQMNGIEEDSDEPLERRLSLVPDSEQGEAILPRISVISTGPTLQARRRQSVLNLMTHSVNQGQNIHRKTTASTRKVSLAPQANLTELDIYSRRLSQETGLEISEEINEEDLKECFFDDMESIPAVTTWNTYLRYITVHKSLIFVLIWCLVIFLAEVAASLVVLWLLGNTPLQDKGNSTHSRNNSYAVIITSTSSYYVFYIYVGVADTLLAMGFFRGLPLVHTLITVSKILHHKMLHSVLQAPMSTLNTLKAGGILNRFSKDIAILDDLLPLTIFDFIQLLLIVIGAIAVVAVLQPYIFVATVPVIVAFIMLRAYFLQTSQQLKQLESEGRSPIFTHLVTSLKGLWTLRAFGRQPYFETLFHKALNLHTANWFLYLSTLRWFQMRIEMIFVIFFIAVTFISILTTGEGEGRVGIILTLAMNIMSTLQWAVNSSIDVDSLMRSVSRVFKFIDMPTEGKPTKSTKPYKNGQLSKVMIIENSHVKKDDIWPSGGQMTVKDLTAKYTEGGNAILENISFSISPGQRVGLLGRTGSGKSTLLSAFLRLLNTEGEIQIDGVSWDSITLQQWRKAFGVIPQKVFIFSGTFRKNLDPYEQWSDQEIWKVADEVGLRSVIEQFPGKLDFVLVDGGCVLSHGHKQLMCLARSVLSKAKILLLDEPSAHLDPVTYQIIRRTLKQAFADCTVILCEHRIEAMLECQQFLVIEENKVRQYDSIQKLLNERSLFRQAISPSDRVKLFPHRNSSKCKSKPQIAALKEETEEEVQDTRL

| Compound | Emax [1] [%] | EC50 [2] [µM] | EC50 [3] [µM] | further results |
| --- | --- | --- | --- | --- |
| Cc1ccc(C#N)cc1-c1nc(NS(=O)(=O)c2ccnc(N3CC(C)(O)C3)c2)ccc1C(F)(F)F [Example 317, N-(6-(5-cyano-2-methylphenyl)-5-(trifluoromethyl)pyridin-2-yl)-2-(3-hydroxy-3-methylazetidin-1-yl)pyridine-4-sulfonamide] | 185 | 4.67 |  |  |
| CC1(C(=O)O)CCN(c2cccc(S(=O)(=O)Nc3ccc(C(F)(F)F)c(-c4ccccc4C4CCCC4)n3)n2)CC1 [Example 379, 1-(6-(N-(6-(2-cyclopentylphenyl)-5-(trifluoromethyl)pyridin-2-yl)sulfamoyl)pyridin-2-yl)-4-methylpiperidine-4-carboxylic Acid] |  |  | 1.08 | Emax (CFBE41o-): 646% |
| Cc1ccccc1-c1nc(NS(=O)(=O)c2cccc(N3CCC4(CC4C(=O)O)C3)n2)ccc1C(F)(F)F (stereo not drawn) [Example 419, 5-(6-(N-(6-(o-tolyl)-5-(trifluoromethyl)pyridin-2-yl)sulfamoyl)pyridin-2-yl)-5-azaspiro[2.4]heptane-1-carboxylic Acid] |  |  | 2.39 | Emax [4]: 644% |
| Cc1ccccc1-c1nc(NS(=O)(=O)c2cccc(N)n2)ccc1C(F)(F)F [Example 15, 6-amino-N-(6-(o-tolyl)-5-(trifluoromethyl)pyridin-2-yl)pyridine-2-sulfonamide] | 520 | 2.3 |  |  |
| Cc1ccccc1-c1nc(NS(=O)(=O)c2cccc(N3CCN4CC(F)(F)C[C@H]4C3)n2)ccc1C(F)(F)F [Example 136, (S)-6-(7,7-difluorohexahydropyrrolo[1,2-a]pyrazin-2(1H)-yl)-N-(6-(o-tolyl)-5-(trifluoromethyl)pyridin-2-yl)pyridine-2-sulfonamide] | 862 | 1.11 |  |  |
| Cc1ccccc1-c1nc(NS(=O)(=O)c2cccc(N)n2)ccc1C1CC1 [Example 66, 6-amino-N-(5-cyclopropyl-6-(o-tolyl)pyridin-2-yl)pyridine-2-sulfonamide] | 215 | 3.07 |  |  |
| Cc1cc(NS(=O)(=O)c2cccc(N)n2)nc(-c2c(C)cccc2C)c1 [Example 63, 6-amino-N-(6-(2,6-dimethylphenyl)-4-methylpyridin-2-yl)pyridine-2-sulfonamide] | 226 | 2.69 |  |  |
| Cc1cccc(C)c1-c1nc(NS(=O)(=O)c2cccc(N)n2)cc(C(F)(F)F)c1Cl [Example 8, 6-amino-N-(5-chloro-6-(2,6-dimethylphenyl)-4-(trifluoromethyl)pyridin-2-yl)pyridine-2-sulfonamide] | 608 | 1.36 |  |  |
| Cc1ccccc1-c1nc(NS(=O)(=O)c2cccc(N3C4CCC3CC(C(=O)O)C4)n2)ccc1C(F)(F)F (stereo not drawn) [Example 346, 8-(6-{[6-(2-methylphenyl)-5-(trifluoromethyl)pyridin-2-yl]sulfamoyl}pyridin-2-yl)-8-azabicyclo[3.2.1]octane-3-carboxylic Acid] | 297 |  |  | EC50: 1.75 µM |
| COC(=O)C1(NC(=O)OC(C)(C)C)CCN(c2cccc(S(=O)(=O)Nc3ccc(Cl)c(-c4c(C)cccc4C)n3)n2)CC1 [Example 267, methyl 4-{[(tert-butoxy)carbonyl]amino}-1-(6-{[5-chloro-6-(2,6-dimethylphenyl)pyridin-2-yl]sulfamoyl}pyridin-2-yl)piperidine-4-carboxylate] | 887 | 1.26 |  |  |
| Cc1ccccc1-c1nc(NS(=O)(=O)c2cccc(N3CCN(C(=O)OC(C)(C)C)[C@H](C(=O)O)C3)n2)ccc1C(F)(F)F [Example 334, (2S)-1-[(tert-butoxy)carbonyl]-4-(6-{[6-(2-methylphenyl)-5-(trifluoromethyl)pyridin-2-yl]sulfamoyl}pyridin-2-yl)piperazine-2-carboxylic Acid] | 164 | 2.47 |  |  |
| Cc1ccccc1-c1nc(NS(=O)(=O)c2cccc(N)n2)ccc1Br [Example 23, 6-amino-N-(5-bromo-6-(o-tolyl)pyridin-2-yl)pyridine-2-sulfonamide] | 486 | 1.88 |  |  |
| Cc1ccccc1-c1nc(NS(=O)(=O)c2cccc(N3CCN(C(=O)OC(C)(C)C)C[C@H]3C(=O)O)n2)ccc1C(F)(F)F [Example 350, (2S)-4-[(tert-butoxy)carbonyl]-1-(6-{[6-(2-methylphenyl)-5-(trifluoromethyl)pyridin-2-yl]sulfamoyl}pyridin-2-yl)piperazine-2-carboxylic Acid] | 232 | 1.9 |  |  |
| CC(C)COc1ccccc1-c1nc(NS(=O)(=O)c2cccc(N3CCC(C)(C(=O)O)CC3)n2)ccc1C(F)(F)F [Example 382, 1-(6-(N-(6-(2-isobutoxyphenyl)-5-(trifluoromethyl)pyridin-2-yl)sulfamoyl)pyridin-2-yl)-4-methylpiperidine-4-carboxylic Acid] |  |  | 0.711 | Emax [4]: 504% |
| Cc1ccccc1-c1nc(NS(=O)(=O)c2cccc(NC3CCC(C(=O)O)C3)n2)ccc1C(F)(F)F (mixture of isomers) [Example 459, 3-((6-(N-(6-(o-tolyl)-5-(trifluoromethyl)pyridin-2-yl)sulfamoyl)pyridin-2-yl)amino)cyclopentanecarboxylic Acid] |  |  | 2.36 | Emax [4]: 332% |
| CC(C)COc1ccccc1-c1nc(NS(=O)(=O)c2cccc(N3CCC[C@@](C)(C(=O)O)C3)n2)ccc1Cl [Example 422, (R)-1-(6-(N-(5-chloro-6-(2-isobutoxyphenyl)pyridin-2-yl)sulfamoyl)pyridin-2-yl)-3-methylpiperidine-3-carboxylic Acid] |  |  | 1.38 | Emax [4]: 905% |
| CC(C)c1ccccc1-c1nc(NS(=O)(=O)c2cccc(N3CCC[C@H](C(=O)O)C3)n2)ccc1C(F)(F)F [Example 376, (S)-1-(6-(N-(6-(2-isopropylphenyl)-5-(trifluoromethyl)pyridin-2-yl)sulfamoyl)pyridin-2-yl)piperidine-3-carboxylic Acid] | 629 | 0.913 |  |  |

The next lines start with results.

| Emax [1] [%] | EC50 [2] [µM] | EC50 [3] [µM] | Compound | further results |
| --- | --- | --- | --- | --- |
|  |  | 1.04 | CC1(C(=O)O)CCCN(c2cccc(S(=O)(=O)Nc3ccc(Cl)c(-c4ccccc4C4CCC4)n3)n2)C1 (stereo not drawn) [Example 389, 1-(6-(N-(5-chloro-6-(2-cyclobutylphenyl)pyridin-2-yl)sulfamoyl)pyridin-2-yl)-3-methylpiperidine-3-carboxylic Acid] | Emax [4]: 749% |
|  |  | 1.77 | Cc1ccccc1-c1nc(NS(=O)(=O)c2cccc(N3CCC[C@@](C)(C(=O)O)C3)n2)ccc1C(F)(F)F [Example 415, (3R)-3-methyl-1-(6-{[6-(2-methylphenyl)-5-(trifluoromethyl)pyridin-2-yl]sulfamoyl}pyridin-2-yl)piperidine-3-carboxylic Acid] |  |
| 180 | 4.28 |  | O=S(=O)(Nc1ccc(Cl)c(-c2ccc(F)cc2Cl)n1)c1cccc(N2CCNCC2)n1 [Example 157, N-(5-chloro-6-(2-chloro-4-fluorophenyl)pyridin-2-yl)-6-(piperazin-1-yl)pyridine-2-sulfonamide] |  |
| 108 | 3.53 |  | Nc1cccc(S(=O)(=O)Nc2ccc(Cl)c(-c3c(F)cc(F)cc3F)n2)n1 [Example 86, 6-amino-N-(5-chloro-6-(2,4,6-trifluorophenyl)pyridin-2-yl)pyridine-2-sulfonamide] |  |
| 258 | 1.1 |  | Nc1cccc(S(=O)(=O)Nc2ccc(Cl)c(-c3ccccc3OC(F)(F)F)n2)n1 [Example 59, 6-amino-N-(5-chloro-6-(2-(trifluoromethoxy)phenyl)pyridin-2-yl)pyridine-2-sulfonamide] |  |
| 105 | 4 |  | Cc1cccc(C)c1-c1nc(NS(=O)(=O)c2cccc(N3CCC(N)(C(=O)O)CC3)n2)ccc1Cl [Example 269, 4-amino-1-(6-{[5-chloro-6-(2,6-dimethylphenyl)pyridin-2-yl]sulfamoyl}pyridin-2-yl)piperidine-4-carboxylic Acid Hydrochloride] |  |
|  |  | 2.54 | Cc1c(F)cccc1-c1nc(NS(=O)(=O)c2cccc(N3CCCC4(CC4C(=O)O)C3)n2)ccc1C(F)(F)F (stereo not drawn) [Example 440, 5-(6-(N-(6-(3-fluoro-2-methylphenyl)-5-(trifluoromethyl)pyridin-2-yl)sulfamoyl)pyridin-2-yl)-5-azaspiro[2.5]octane-1-carboxylic Acid] | Emax [4]: 274% |
| 280 | 4.51 |  | CC1(C(=O)O)CCN(c2cccc(S(=O)(=O)Nc3ccc(Cl)c(-c4ccccc4Cl)n3)n2)CC1 [Example 239, 1-(6-(N-(5-chloro-6-(2-chlorophenyl)pyridin-2-yl)sulfamoyl)pyridin-2-yl)-4-methylpiperidine-4-carboxylic Acid] |  |
| 152 | 2.55 |  | Cc1ccc(NS(=O)(=O)c2cccc(N)n2)nc1-c1ccccc1Cl [Example 77, 6-amino-N-(6-(2-chlorophenyl)-5-methylpyridin-2-yl)pyridine-2-sulfonamide Hydrochloride] |  |
|  |  | 0.761 | CC1(C(=O)O)CCCN(c2cccc(S(=O)(=O)Nc3ccc(Cl)c(-c4ccccc4C(C)(C)C)n3)n2)C1 (stereo not drawn) [Example 390, 1-(6-(N-(6-(2-(tert-butyl)phenyl)-5-chloropyridin-2-yl)sulfamoyl)pyridin-2-yl)-3-methylpiperidine-3-carboxylic Acid] | Emax [4]: 889% |
| 152 | 2.6 |  | CC1(C(=O)O)CCN(c2cccc(S(=O)(=O)Nc3ccc(Cl)c(-c4ccc(F)cc4Cl)n3)n2)CC1 [Example 243, 1-(6-(N-(5-chloro-6-(2-chloro-4-fluorophenyl)pyridin-2-yl)sulfamoyl)pyridin-2-yl)-4-methylpiperidine-4-carboxylic Acid] |  |
| 523 | 1.35 |  | Cc1ccccc1-c1nc(NS(=O)(=O)c2cccc(N)n2)ccc1Cl [Example 14, 6-Amino-N-(5-chloro-6-(o-tolyl)pyridin-2-yl)pyridine-2-sulfonamide] |  |
